Measured values published in patent JP2016199536A, “筋肉増強およびメタボリックシンドローム改善ならびにqol改善のための組成物” (NUTRITION ACT CO Ltd, priority 2015, dated 2016).

What was measured:
[1] = Body fat reduction in high-fat-diet mice, epididymal fat weight (Example 4); assay type: in vivo, mouse; settings: 10 weeks, C57BL/6J male mice, 6-compartment cage, high-fat diet with oleanolic acid or oleuropein 50 mg/kg diet, or Oleavita 1000 mg/kg diet
myoblasts (筋芽細胞) = test: Myoblast differentiation promotion test, count of beating myotubes (Example 3); assay type: cell-based; settings: 1 μM, 10 days after cell seeding, cells from ICR mouse fetal thigh muscle
[2] = Plasma leptin concentration in high-fat-diet mice (Example 5); assay type: in vivo, mouse; settings: 10 weeks, C57BL/6J male mice, 6-compartment cage, high-fat diet with oleanolic acid or oleuropein 50 mg/kg diet, or Oleavita 1000 mg/kg diet
[3] = Plasma insulin concentration in high-fat-diet mice (Example 5); assay type: in vivo, mouse; settings: 10 weeks, C57BL/6J male mice, 6-compartment cage, high-fat diet with oleanolic acid or oleuropein 50 mg/kg diet, or Oleavita 1000 mg/kg diet

Row | Compound | fat-reducing effect compared with high-fat diet group (HF) [1] | beating myotube cells compared with control (myoblasts (筋芽細胞)) | plasma leptin concentration [2] | suppression of plasma insulin concentration [3]
1 | CC1(C)CC[C@]2(C(=O)O)CC[C@]3(C)C(=CC[C@@H]4[C@@]5(C)CC[C@H](O)C(C)(C)[C@@H]5CC[C@]43C)[C@@H]2C1 [オレアノール酸] | 脂肪減少効果が見られなかった | わずかに増加 | 高値 | 抑制効果がなかった
2 | C/C=C1/[C@H](O[C@@H]2O[C@H](CO)[C@@H](O)[C@H](O)[C@H]2O)OC=C(C(=O)OC)[C@H]1CC(=O)OCCc1ccc(O)c(O)c1 [オレウロペイン] | 脂肪減少効果が見られなかった | わずかに増加 | 高値 | 抑制効果がなかった
